In patent US5618675A, “Methods and compositions for detecting lipopolysaccharides using CAP18 fragments” (Panorama Research, Inc., dated 1997):

Tested on: multiple drug-resistant Mycobacterium tuberculosis
Assay: Antimicrobial activity
Assay type: cell-based
Settings: range 0-20 μg/ml

36-1: synthetic rabbit RNIP-derived fragment, amino acids 135-166 of SEQ ID NO:4 (GLRKRLRKFRNKIKEKLKKIGQKIQGLLPKLA)
activity versus multiple drug-resistant Mycobacterium tuberculosis: inactive

RNIP: reactive nitrogen inhibitory protein, amino acids 135-171 of SEQ ID NO:4 (rabbit CAP18 C-terminus); purified from granulocytes or synthetic (#197) (GLRKRLRKFRNKIKEKLKKIGQKIQGLLPKLAPRTDY)
activity versus multiple drug-resistant Mycobacterium tuberculosis: inactive
